Experimental data: ChEMBL document CHEMBL6078693, “Move over COVID, Tuberculosis Is Once again the Leading Cause of Death from a Single Infectious Disease” (J Med Chem, 2024)
Values after ≈ are worked out from the molar mass of the structure shown.

Key:
[1] = system: Mycobacterium tuberculosis; test: Antimycobacterial activity against Mycobacterium tuberculosis H37Rv assessed as reduction in bacterial growth incubated for 7 days by resazurin dye based assay; type: functional; conditions: 168 h, time 7 day
[2] = system: Mycobacterium tuberculosis; test: Antimycobacterial activity against Mycobacterium tuberculosis; type: functional, organism-based

For NC[C@H]1OB(O)c2c(OCCO)ccc(Cl)c21 [GANFEBOROLE], the MIC [1] was 0.08 µM (≈ 0.0206 µg/mL) and the IC50 [2] was 200 nM.
